# Test results from ChEMBL document CHEMBL1201862, “PubChem BioAssay data set” (2004).
# The source made the active and inactive calls.
# Assays:
# [1] = molecular target: T1, Ubiquitin-conjugating enzyme E2 N (Homo sapiens, UniProt P61088); type: functional;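 further: Dose-response confirmation in a TR-FRET assay detecting UBC13-driven polyubiquitin chain formation, inhibition measured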
# T1 sequence (P61088 whole entry): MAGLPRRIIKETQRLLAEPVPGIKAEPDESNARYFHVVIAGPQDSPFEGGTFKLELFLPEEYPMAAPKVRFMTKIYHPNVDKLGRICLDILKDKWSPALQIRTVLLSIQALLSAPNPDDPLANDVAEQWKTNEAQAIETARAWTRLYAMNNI
# [2] = molecular target: T2, Aminopeptidase N (Plasmodium falciparum FcB1/Columbia, UniProt O96935); assay: malaria alanyl aminopeptidase activity blockers – biochemical, fluorogenic H-Leu-NHMec substrate, 1536-well (AID 1445); set-up: species or system Plasmodium falciparum 3D7, 3D7
# T2 sequence (O96935 whole entry): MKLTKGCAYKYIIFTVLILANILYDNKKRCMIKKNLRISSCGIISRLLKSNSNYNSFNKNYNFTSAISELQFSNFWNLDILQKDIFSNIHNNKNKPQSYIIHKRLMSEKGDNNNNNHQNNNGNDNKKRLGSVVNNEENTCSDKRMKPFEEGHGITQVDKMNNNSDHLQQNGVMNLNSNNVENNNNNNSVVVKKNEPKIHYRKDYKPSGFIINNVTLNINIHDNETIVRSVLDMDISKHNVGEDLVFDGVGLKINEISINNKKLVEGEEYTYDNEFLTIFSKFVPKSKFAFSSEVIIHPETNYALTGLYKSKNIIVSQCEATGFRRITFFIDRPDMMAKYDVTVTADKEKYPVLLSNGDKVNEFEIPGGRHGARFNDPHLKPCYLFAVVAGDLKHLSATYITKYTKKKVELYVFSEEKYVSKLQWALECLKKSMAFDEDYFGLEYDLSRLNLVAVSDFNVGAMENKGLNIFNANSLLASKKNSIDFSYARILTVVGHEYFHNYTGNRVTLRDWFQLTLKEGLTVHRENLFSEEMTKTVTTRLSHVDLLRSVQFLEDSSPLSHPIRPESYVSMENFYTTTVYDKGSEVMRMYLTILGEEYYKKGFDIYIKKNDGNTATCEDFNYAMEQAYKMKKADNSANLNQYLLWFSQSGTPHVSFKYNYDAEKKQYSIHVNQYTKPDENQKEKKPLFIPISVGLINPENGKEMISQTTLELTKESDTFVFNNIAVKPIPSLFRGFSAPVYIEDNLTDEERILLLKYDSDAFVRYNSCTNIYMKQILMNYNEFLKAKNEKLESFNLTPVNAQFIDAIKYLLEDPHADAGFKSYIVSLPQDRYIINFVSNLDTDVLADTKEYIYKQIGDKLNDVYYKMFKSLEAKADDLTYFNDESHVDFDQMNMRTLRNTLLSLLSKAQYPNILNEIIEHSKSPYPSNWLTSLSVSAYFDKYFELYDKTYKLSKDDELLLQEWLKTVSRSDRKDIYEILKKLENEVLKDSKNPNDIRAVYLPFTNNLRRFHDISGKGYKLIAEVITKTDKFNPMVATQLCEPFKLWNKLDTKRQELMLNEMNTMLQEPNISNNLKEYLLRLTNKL
# [3] = molecular target: Cytochrome P450 2D6 (Homo sapiens, UniProt P10635);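 further: CYP2D6 member of a cytochrome P450 panel assay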
# [4] = molecular target: Cytochrome P450 2C9 (Homo sapiens, UniProt P11712)
# [5] = microbe, parasite or virus in culture; type: functional; conditions: Mycobacterium tuberculosis
# [6] = fluconazole-exposed Candida albicans growth modulators – fluorescence, retest, confirmation (AID 2467); type: functional, cell-based
# [7] = NIH-3T3 fibroblast cytotoxicity, dose response, cytotoxicity control, cell-based, fluorescence, Alamar Blue, secondary assay (AID 2327); type: functional;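 further: NIH-3T3 mouse fibroblasts cultured with fluconazole at 8 µg/mL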
# [8] = molecular target: Peroxisome proliferator-activated receptor gamma/Nuclear receptor coactivator 3 (Homo sapiens, UniProt P37231); assay: (§1) TR-FRET dose response biochemical High Throughput Screening assay for agonists of the steroid receptor coactivator 3 (SRC-3) recruitment by the peroxisome proliferator-activated receptor gamma (PPAR gamma): non-selective agonists. [Related pubchem assays: 1301 (Confirmation screen.), 1048 (Primary screen.)]; type: functional
# [9] = molecular target: Peroxisome proliferator-activated receptor gamma/Nuclear receptor coactivator 1 (Homo sapiens, UniProt P37231); assay: as §1, with “1 (SRC-1)” for “3 (SRC-3)”, “assays (depositor defined):AID1300, AID1808, AID504735, AID631]” for “assays: 1301 (Confirmation screen.), 1048 (Primary screen.)]”; type: protein assay
# [10] = molecular target: Peroxisome proliferator-activated receptor gamma/Nuclear receptor coactivator 2 (Homo sapiens, UniProt P37231); assay: TR-FRET dose response biochemical High Throughput Screening assay for agonists of the steroid receptor coactivator 2 (SRC-2) recruitment by the peroxisome proliferator-activated receptor gamma (PPAR gamma): non-selective agonists. [Related pubchem assays: 1297, 1032 ]; type: functional
# [11] = molecular target: Cytochrome P450 2C19 (Homo sapiens, UniProt P33261); assay: Cytochrome panel assay with activity outcomes. Panel member name: p450-cyp2c19 Compounds with AC50 equal or less than 10 uM are considered active; type: functional; conditions: read-out: AC50
# [12] = system: H9c2; assay: cells; type: functional, cell-based; conditions: Rattus norvegicus, H9c2, Myocardium;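 further: confirmatory concentration-response retest of ultra-high-throughput screening hits for modulation of myocardial damage; cell death induced by hydrogen peroxide oxidative stress; compound pretreatment for 60 min then peroxide exposure for 2 h; potency is for protecting the cells against peroxide damage rather than for killing them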
# [13] = molecular target: T3, Polyadenylate-binding protein 1 (Homo sapiens, UniProt P11940); assay: MLLE domain peptide-binding blockers, IC50 – biochemical, fluorescence polarization, FITC-PAM2 peptide, dose response (AID 602259); type: functional; conditions: read-out: IC50_Mean
# [14] = molecular target: T3, Polyadenylate-binding protein 1; assay: MLLE binding blockers, Cy5 peptide tracer – biochemical, fluorescence polarization, Cy5-PAM2 peptide, secondary, miRNA deadenylation inhibitor project, dose response (AID 602260); type: functional; conditions: read-out: IC50_Mean
# [15] = molecular target: Nonstructural protein 1 (Influenza A virus, UniProt Q194T2); type: functional, Influenza A virus (A/California/07/2009(H1N1))
# [16] = viability of HCT116 lacking mutant beta-catenin – cell-based, human colon tumor, dose response (AID 1045); type: functional;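 further: HCT116 colon tumor cells with beta catenin knocked out; cells exposed to compound for 60 hours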
# [17] = viability of PTEN-deleted HCT116 cells – cell-based, HCT116 PTEN knockout, dose response (AID 1047); type: functional;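 further: HCT116 colon tumor cells with PTEN knocked out; cells exposed to compound for 60 hours before readout; potency for loss of cell viability measured by luminescence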
# [18] = reduction of Shn3 3'UTR-driven luciferase in osteoblasts – cell-based, Clone20 osteoblasts, firefly luciferase, cherry-picked, dose response (AID 624132); type: functional;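 further: firefly luciferase luminescence from reporter carrying the Shn3 3'UTR in osteoblasts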
# [19] = molecular target: T4, DNA repair protein RAD52 homolog (Homo sapiens, UniProt P43351); type: functional, biochemical
# T4 sequence (P43351 whole entry): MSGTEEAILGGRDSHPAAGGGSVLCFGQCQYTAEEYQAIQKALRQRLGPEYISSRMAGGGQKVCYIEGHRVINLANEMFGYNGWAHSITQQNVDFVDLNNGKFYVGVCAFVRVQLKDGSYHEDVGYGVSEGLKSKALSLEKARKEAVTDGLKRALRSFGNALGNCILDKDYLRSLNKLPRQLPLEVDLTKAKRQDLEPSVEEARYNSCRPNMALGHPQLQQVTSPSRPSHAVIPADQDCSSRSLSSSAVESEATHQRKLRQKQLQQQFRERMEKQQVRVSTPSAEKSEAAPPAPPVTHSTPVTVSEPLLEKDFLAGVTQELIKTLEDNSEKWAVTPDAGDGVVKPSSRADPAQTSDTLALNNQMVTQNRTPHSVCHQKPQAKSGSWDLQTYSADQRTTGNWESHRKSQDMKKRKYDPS
# [20] = non-specific 3'UTR reporter inhibition in Clone20-Shn3RL – cell-based, Renilla luciferase, cherry-picked, counter-screen for Shn3 inhibitor project, dose response (AID 624133); type: functional
# [21] = loss of viability in HepG2 cells – cell-based, CellTiter-Glo, cherry-picked, cytotoxicity control for Shn3 inhibitor project, dose response (AID 624134); type: functional
# [22] = molecular target: Paired box protein Pax-8 (Homo sapiens, UniProt Q06710); assay: PAX8 transcriptional activity inhibition in RMG-I – RMG-I cells, luciferase, cherry-pick, dose response (AID 687027); type: functional, cell-based;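 further: luciferase reporter driven by Pax8 target thyroperoxidase promoter measured by SteadyGlo luminescence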
# [23] = HIV-1 AD8 envelope cell-cell fusion blockers – cherry-pick, dose response (AID 652062); type: functional, cell-based;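 further: luciferase signal from cell-cell fusion driven by HIV-1 clade B AD8 Env; potency is for inhibitors of fusion seen as a drop in luminescence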
# [24] = blockers of HIV-1 envelope-mediated cell-cell fusion – cherry-pick, dose response (AID 652057); type: functional, cell-based
# [25] = blockers of HIV-1 ZM109 envelope-driven cell-cell fusion – HeLa effector, CEM target cells, luciferase, cherry-pick, dose response (AID 652058); type: functional, cell-based;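 further: luciferase signal from HIV-1 Env mediated cell-cell fusion of effector and target cells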
# Sequence of Nonstructural protein 1 (Q194T2 whole entry): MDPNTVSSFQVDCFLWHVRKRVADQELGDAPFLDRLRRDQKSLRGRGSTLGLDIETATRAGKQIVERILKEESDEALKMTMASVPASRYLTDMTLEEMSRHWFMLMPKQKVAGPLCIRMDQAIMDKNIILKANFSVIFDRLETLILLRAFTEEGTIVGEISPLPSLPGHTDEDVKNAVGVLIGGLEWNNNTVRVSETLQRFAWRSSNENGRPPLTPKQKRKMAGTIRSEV
# Sequence of Cytochrome P450 2C9 (P11712 whole entry): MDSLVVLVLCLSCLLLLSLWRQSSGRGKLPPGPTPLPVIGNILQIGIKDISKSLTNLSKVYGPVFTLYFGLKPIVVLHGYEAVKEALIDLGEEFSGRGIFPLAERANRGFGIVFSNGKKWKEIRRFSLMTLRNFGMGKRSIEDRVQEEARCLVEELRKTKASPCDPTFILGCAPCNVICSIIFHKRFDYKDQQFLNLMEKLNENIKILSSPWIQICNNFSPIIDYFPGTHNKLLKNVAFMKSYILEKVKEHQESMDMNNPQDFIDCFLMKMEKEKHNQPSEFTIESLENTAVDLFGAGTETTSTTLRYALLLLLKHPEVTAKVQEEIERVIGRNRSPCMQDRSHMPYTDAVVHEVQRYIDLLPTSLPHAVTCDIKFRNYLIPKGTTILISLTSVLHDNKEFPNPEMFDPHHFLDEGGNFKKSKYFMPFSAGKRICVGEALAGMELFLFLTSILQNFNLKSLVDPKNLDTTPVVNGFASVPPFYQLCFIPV
# Sequence of Peroxisome proliferator-activated receptor gamma/Nuclear receptor coactivator 2 (P37231 whole entry): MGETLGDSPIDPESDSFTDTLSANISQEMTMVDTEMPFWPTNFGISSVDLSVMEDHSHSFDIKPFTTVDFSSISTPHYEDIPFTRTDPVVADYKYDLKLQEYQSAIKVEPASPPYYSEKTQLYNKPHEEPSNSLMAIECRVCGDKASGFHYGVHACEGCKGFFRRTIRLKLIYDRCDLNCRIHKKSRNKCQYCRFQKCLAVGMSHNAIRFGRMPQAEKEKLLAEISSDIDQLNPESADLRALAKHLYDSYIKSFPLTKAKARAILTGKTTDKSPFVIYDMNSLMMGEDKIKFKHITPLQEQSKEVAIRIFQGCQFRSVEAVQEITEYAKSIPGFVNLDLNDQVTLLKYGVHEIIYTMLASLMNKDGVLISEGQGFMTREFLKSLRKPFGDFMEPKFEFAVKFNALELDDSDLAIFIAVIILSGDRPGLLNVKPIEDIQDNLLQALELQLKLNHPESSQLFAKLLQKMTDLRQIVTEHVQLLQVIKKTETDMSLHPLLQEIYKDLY
# Sequence of Peroxisome proliferator-activated receptor gamma/Nuclear receptor coactivator 2 (Q15596 whole entry, further chain): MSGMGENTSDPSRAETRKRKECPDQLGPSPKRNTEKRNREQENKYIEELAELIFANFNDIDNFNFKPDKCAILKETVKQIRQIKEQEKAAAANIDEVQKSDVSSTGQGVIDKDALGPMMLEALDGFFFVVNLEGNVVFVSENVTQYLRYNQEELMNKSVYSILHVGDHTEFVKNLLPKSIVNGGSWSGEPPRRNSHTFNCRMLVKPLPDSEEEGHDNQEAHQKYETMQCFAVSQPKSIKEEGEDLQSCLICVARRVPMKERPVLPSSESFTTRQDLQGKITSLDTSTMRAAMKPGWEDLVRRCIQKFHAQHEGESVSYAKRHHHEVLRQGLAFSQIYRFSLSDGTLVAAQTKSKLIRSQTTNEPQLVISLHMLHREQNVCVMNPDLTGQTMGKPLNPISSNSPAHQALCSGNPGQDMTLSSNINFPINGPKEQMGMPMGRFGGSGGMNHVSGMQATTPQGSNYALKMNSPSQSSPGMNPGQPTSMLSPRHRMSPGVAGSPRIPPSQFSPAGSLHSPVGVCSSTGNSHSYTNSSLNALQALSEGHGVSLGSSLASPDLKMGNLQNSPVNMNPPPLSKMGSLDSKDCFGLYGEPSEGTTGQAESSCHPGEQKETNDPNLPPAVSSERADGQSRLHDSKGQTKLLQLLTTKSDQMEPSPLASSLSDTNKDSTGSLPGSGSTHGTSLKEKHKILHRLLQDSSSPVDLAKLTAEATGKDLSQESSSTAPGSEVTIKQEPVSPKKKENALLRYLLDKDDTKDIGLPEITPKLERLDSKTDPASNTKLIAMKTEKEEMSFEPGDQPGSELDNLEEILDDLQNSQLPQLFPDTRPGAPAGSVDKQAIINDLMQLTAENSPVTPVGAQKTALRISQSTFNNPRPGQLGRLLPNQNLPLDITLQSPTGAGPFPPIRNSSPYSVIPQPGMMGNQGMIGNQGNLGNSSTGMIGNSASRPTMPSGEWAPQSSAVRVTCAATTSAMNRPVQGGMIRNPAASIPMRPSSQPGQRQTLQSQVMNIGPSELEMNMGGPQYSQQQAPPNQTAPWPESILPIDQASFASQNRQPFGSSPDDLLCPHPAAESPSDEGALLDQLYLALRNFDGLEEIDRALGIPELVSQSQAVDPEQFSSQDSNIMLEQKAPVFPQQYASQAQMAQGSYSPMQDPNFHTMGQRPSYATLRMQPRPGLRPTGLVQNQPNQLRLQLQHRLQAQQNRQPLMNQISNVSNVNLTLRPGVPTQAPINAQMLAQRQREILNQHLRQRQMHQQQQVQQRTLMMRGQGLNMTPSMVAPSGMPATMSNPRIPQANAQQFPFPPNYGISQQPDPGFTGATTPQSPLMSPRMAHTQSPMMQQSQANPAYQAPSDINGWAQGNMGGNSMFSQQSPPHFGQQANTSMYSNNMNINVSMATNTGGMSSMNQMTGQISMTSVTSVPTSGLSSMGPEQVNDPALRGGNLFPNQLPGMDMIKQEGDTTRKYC
# Sequence of Peroxisome proliferator-activated receptor gamma/Nuclear receptor coactivator 3 (P37231 whole entry): as the sequence (P37231 whole entry) above
# Sequence of Peroxisome proliferator-activated receptor gamma/Nuclear receptor coactivator 3 (Q9Y6Q9 whole entry, further chain): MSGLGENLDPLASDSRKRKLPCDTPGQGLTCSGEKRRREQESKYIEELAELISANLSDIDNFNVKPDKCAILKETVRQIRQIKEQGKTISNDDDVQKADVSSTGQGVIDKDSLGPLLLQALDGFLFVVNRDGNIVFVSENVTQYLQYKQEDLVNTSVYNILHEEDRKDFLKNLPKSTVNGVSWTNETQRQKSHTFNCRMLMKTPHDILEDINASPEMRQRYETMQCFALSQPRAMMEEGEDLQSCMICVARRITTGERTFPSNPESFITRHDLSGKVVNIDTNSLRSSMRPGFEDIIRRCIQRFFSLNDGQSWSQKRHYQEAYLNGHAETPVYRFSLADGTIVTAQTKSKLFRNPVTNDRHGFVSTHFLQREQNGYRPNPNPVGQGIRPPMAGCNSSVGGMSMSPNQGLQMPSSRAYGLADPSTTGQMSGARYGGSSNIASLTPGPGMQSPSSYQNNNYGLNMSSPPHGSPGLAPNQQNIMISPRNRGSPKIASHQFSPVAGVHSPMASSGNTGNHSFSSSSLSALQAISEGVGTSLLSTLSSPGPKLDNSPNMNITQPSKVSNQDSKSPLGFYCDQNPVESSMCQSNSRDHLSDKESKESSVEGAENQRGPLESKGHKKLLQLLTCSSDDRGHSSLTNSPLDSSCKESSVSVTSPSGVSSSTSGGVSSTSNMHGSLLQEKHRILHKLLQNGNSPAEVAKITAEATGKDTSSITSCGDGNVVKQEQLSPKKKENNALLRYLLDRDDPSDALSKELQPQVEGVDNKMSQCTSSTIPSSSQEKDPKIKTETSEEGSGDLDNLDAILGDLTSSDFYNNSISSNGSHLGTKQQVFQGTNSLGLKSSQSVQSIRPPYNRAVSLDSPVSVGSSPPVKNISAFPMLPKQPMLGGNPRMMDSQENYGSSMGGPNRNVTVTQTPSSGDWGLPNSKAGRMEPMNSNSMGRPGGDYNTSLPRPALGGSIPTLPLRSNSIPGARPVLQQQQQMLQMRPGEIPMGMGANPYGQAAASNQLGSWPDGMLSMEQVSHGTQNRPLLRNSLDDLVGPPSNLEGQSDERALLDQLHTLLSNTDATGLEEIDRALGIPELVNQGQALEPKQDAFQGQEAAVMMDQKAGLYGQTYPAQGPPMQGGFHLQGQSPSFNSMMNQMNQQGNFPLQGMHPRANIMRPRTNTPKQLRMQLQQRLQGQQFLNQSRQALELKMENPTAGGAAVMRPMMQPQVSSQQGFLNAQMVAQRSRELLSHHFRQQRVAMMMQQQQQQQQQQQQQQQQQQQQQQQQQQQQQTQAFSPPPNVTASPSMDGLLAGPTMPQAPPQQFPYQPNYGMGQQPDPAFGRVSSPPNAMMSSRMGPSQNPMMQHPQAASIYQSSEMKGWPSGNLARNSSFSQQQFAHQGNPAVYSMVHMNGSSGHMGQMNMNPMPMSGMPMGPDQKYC
# Sequence of Paired box protein Pax-8 (Q06710 whole entry, the tested form may be a part): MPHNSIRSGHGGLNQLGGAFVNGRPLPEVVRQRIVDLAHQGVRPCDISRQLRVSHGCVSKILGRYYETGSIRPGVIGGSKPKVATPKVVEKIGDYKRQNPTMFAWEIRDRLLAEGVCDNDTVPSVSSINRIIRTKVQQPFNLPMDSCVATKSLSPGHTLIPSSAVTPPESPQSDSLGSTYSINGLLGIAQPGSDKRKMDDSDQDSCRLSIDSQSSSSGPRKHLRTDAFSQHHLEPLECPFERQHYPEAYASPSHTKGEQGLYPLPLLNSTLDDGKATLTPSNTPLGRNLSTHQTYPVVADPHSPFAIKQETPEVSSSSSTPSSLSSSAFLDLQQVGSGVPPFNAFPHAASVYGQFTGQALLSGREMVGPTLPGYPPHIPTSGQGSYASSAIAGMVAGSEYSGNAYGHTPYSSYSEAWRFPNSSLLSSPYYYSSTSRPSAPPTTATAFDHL
compound,measurement,setting,value
C#CCOCCOCCOCCNc1nc(N2CCOCC2)nc(N2CCN(C(=O)CCCCCCCCCCNC(=O)[C@@H]([C@H](C)CC)n3cc(CCCCCN)nn3)CC2)n1,IC50,[1],> 20 µM (inactive)
Cc1nnc(NC(=O)c2ccc3ccccc3n2)s1,IC50,[2],36.8 µM (active)
Cc1ccc(OCCCn2c(=O)sc3ccccc32)cc1,AC50,[3],14.1 µM (inconclusive)
same,AC50,[4],inconclusive
CC(=O)Nc1ccc(S(=O)(=O)Nc2nc3ccccc3nc2Nc2ccccc2)cc1,IC50,[2],94.9 µM (active)
Cc1c(Cc2ccccc2)c(=O)oc2c(CN(C)C)c(O)c(Cl)cc12,IC50,[2],33 µM (active)
C[C@@H]1CCCCCCCCC(=O)OCCN[C@H](C)CCCCCCCCC(=O)OCCN[C@H](C)CCCCCCCCC(=O)OCCN1,IC50,[1],> 20 µM (inactive)
same,CC50,[5],26.5 µM (active)
CC(C)c1ccc(OCC(=O)Nc2cccc(C(=O)Nc3ccccc3C(=O)O)c2)cc1,EC50,[6],1.9 µM (active)
same,EC50,[7],16.9 µM (inconclusive)
COc1ccc(CNC(=O)CSc2cc(=O)n(C)c3ccccc23)cc1,EC50,[8],> 79.4 µM (not active)
same,EC50,[9],> 79.4 µM (inactive)
same,EC50,[10],> 79.4 µM (not active)
O=C(Nc1ccc(N=Nc2ccccc2)cc1)c1ccc(Cl)cc1Cl,AC50,[11],39.8 µM (inconclusive)
same,AC50,[4],inconclusive
CCOc1ccc(C(C(=O)NCC2CCCO2)N(C(=O)c2snc(C(N)=O)c2N)c2ccccc2F)cc1 (stereo unspecified),IC50,[1],> 20 µM (inactive)
same,IC50,[12],> 79 µM (inactive)
CC(=O)Oc1ccc2c(C)c(CC(C)O)c(=O)oc2c1 (stereo unspecified),IC50,[2],62.4 µM (active)
CCN(CC)S(=O)(=O)c1ccc(C(=O)NCc2ccc3c(c2)cc(C)n3C)cc1,IC50,[13],> 66 µM (inactive)
same,EC50,[8],15.3 µM (not active)
same,IC50,[14],> 66 µM (inactive)
same,EC50,[9],6.6 µM (active)
same,EC50,[10],6.71 µM (active)
CCSC1=NC(=O)/C(=C2/C=Cc3ccccc3N2CC)S1,IC50,[15],9.25 µM (active)
COc1ccc(OC)c(-n2c(CN3CCC(C(N)=O)CC3)nc3ccccc3c2=O)c1,EC50,[6],3.29 µM (active)
same,EC50,[7],> 150 µM (inactive)
O=C1Nc2ccccc2S/C1=C/NCc1ccccc1Cl,IC50,[2],5.63 µM (active)
CC1=CC=CN2CC(O)CN=C12.Cl (stereo unspecified),AC50,[4],inconclusive
O=C(COc1cc(F)ccc1[N+](=O)[O-])Nc1ccc(N2CCCCC2)cc1,IC50,[15],21.3 µM (active)
COCCCn1c(=S)[nH]c2sc3c(c2c1=O)CCCS3,EC50,[8],> 79.4 µM (not active)
same,EC50,[9],66.8 µM (inactive)
same,EC50,[10],26.7 µM (not active)
O=C(C[n+]1ccccc1)NN=Cc1cc(Br)ccc1O,IC50,[15],2.96 µM (active)
O=C(Cc1ccccc1)Nc1nnc(-c2ccco2)s1,EC50,[8],> 79.4 µM (not active)
same,EC50,[9],> 79.4 µM (inactive)
same,EC50,[10],> 79.4 µM (not active)
CCCOC(=O)/C(=C\c1ccc([N+](=O)[O-])o1)NC(=O)c1ccccc1,EC50,[6],0.174 µM (active)
same,EC50,[7],> 160 µM (inactive)
same,CC50,[5],35.1 µM (active)
O=C(CN1C(=O)C2C3CC(C(Br)C3Br)C2C1=O)Nc1ccc(C(=O)O)cc1 (stereo unspecified),IC50,[2],62.5 µM (active)
CN1CCN(Cc2nc3ccccc3c(=O)n2Cc2nc(-c3ccc([N+](=O)[O-])cc3)cs2)CC1,EC50,[16],7.87 µM (active)
same,IC50,[1],> 20 µM (inactive)
same,EC50,[17],4.88 µM (active)
COc1ccc(C2=NN(C(=N)S)C(c3ccccc3)C2)cc1 (stereo unspecified),EC50,[8],> 79.4 µM (not active)
same,EC50,[9],8.24 µM (active)
same,EC50,[10],8.07 µM (active)
CCCS(=O)(=O)Nc1ccc(Nc2c3ccccc3nc3ccccc23)c(OC)c1,AC50,[18],3.39 µM (active)
same,AC50,[19],3.15 µM (active)
same,AC50,[20],1.03 µM (active)
same,AC50,[21],20.1 µM (active)
CCN(CC)CCNC(=O)c1nn(-c2ccc(Cl)cc2)c2c1CCc1cc(OC)ccc1-2,AC50,[19],16.8 µM (active)
C/N=C(\C[N+](=O)[O-])NCCSCc1ccc(CN(C)C)o1,AC50,[19],12.5 µM (active)
CC(C)CC#Cc1ccc2c(c1)O[C@H](CN(C)S(=O)(=O)c1ccc(F)cc1)[C@H](C)CN([C@@H](C)CO)S2(=O)=O,AC50,[22],9.6 µM (active)
same,AC50,[23],23.7 µM (active)
same,AC50,[24],26.6 µM (active)
same,AC50,[25],20.8 µM (active)
CC(C)NC(=O)Nc1ccc2c(c1)CC(=O)N([C@H](C)CO)C[C@H](C)[C@H](CN(C)S(=O)(=O)c1ccccc1)O2,AC50,[23],35.9 µM (active)
same,AC50,[24],8.61 µM (active)
same,AC50,[25],10.7 µM (active)
O=C(N/N=C/c1ccc(Cl)cc1Cl)Nc1ccccc1,EC50,[6],> 38 µM (not active)
same,EC50,[7],> 160 µM (inactive)
